What all share (assay type): cell-based
One test concerns Ba/F3 parental cells. The experiment in a line: Inhibition of Ba/F3 parental cell proliferation (CTG). The note with it: Mus musculus, BaF3, 72 hours, with IL-3. On the procedure:
(§1) Cell lines were cultured under the condition of 37° C., 5% CO2 and 95% humidity: cell line Ba/F3 parental (suspended, 3000 cells/well, medium was RPMI-1640+10% FBS+8 ng/ml IL-3), cell line Ba/F3 FLT3-ITD (suspended, 3000 cells/well, medium was RPMI-1640+10% FBS)
(§2) Reagents and materials: Fetal bovine serum (FBS, GBICO, Cat. No. 10099-141), CellTiter-Glo® Luminescent Cell Viability Assay (Promega, Cat. No. G7572), 96-well plate with transparent flat bottom and black walls (Corning®, Cat. No. 3603), control compound AC220 (Selleck, Cat. No. S1526).
(§3) Cell Culture and Inoculation: • 1. Cells in the logarithmic growth phase were harvested and counted using a platelet counter. The cell viability was determined by trypan blue exclusion method to ensure that the cell viability was greater than 90%; • 2. The cell concentration was adjusted and 90 μL of the cell suspension was added into a 96-well plate respectively; • 3. The cells in the 96-well plate were cultured overnight under the condition of 37° C., 5% CO2 and 95% humidity.
(§4) Drug Dilution and Dosing: • 1. The 10-fold drug solutions were prepared with a maximum concentration of 100 μM, which was diluted using a 3.16-fold serial gradient dilution, resulting in 9 concentrations. 10 μL of the drug solutions was added to each well of the 96-well plate inoculated with Ba/F3 parental cells; and each drug concentration was set in triplicate. • 2. The 10-fold drug solutions were prepared with a maximum concentration of 10 μM, which was diluted using a 3.16-fold serial gradient dilution, resulting in 9 concentrations. 10 μL of the drug solutions was added to each well of the 96-well plate inoculated with Ba/F3 FLT3-ITD cells; and each drug concentration was set in triplicate. • 3. The cells in the 96-well plate with drugs were cultured at 37° C., 5% CO2 and 95% humidity for 72 hours, and then CTG analysis was carried out.
(§5) Plate Reading at the End Point: • 1. CTG reagent was thawed and the cell plate was equilibrated to room temperature for 30 minutes; • 2. Equal volume of the CTG solution was added to each well; • 3. The cell plate was shaked on the orbital shaker for 5 minutes to lyse the cells; • 4. The cell plate was placed at room temperature for 20 minutes to stabilize the cold light signal; • 5. The cold light values were read.
(§6) GraphPad Prism 8.0 software was used to analyze the data, and the data was fitted using the non-linear S-curve regression to get a dose-effect curve, and IC50 values were calculated. Cell viability (%)=(Lum of test drug−Lum of medium control)/(Lum of cell control−Lum of medium control)×100%.

The subject of a further test is Ba/F3 FLT3-ITD cells. In words: Inhibition of Ba/F3 FLT3-ITD cell proliferation (CTG). The note with it: 72 hours, read-out: BaF3 [FLT3-ITD] IC50. On the procedure: as §1, §2, §3, §4, §5, §6
Another test has as its system MV-4-11 cells. The experiment in a line: Inhibition of cell MV-4-11 proliferation (CTG assay). As to conditions: Homo sapiens, MV4-11, 72 hours. The source says:
Cell MV-4-11 (ATCC, Cat. No. CRL-9591), cell MOLM-13 (COBIOER, Cat. No. CBP60678), RPMI-1640 (GIBCO, Cat. No. A10491-01), penicillin-streptomycin (GIBCO, Cat. No. 15140-122), fetal bovine serum (GIBCO, Cat. No. 10099-141), phosphate buffer solution PBS (GIBCO, Cat. No. 10010-031), DMSO (Sigma, Cat. No. D8418-1L), CelltiterGlo Assay kit (CTG) (Promega, Cat. No. G7573), 96-well plate with transparent flat bottom and black walls (PerkinElmer, Cat. No. 6005680-50), plate shaker (QILINBEIER, Cat. No. B-9002), centrifuge (Eppendorf, Cat. No. 5804R), CO2 incubator (Thermo Scientific, Cat. No. 371), microscope (OLYMPUS Cat. No. CKX41), multi-plate reader (PerkinElmer, Cat. No. EnVision).
(2) Preparation of Cell Suspension • a) The medium was collected from the culture bottle and centrifuged at 1000 rpm for 5 min. • b) The supernatant was discarded, and the cells were resuspended in medium containing 10% fetal bovine serum, and counted to prepare a cell suspension (cell viability was greater than 90%). • c) The cell suspension was added into a 96-well plate, with […] in each well, namely 5000 MV-4-11 cells/well; 5000 MOLM-13 cells/well. • d) The cell plate was cultured overnight in a 37° C., 5% CO2 incubator.
Dilution of Compounds in DMSO: • a) MV-4-11 cells: The compounds were diluted with DMSO from 10 mM to 60 uM, and then subjected to a 3-fold serial gradient dilution in DMSO from 60 uM, resulting in 9 concentrations. • b) MOLM-13 cells: The compounds were diluted with DMSO from 10 mM to 200 uM, and then subjected to a 3-fold serial gradient dilution in DMSO from 200 uM, resulting in 9 concentrations. • c) Compound Taxol was diluted with DMSO from 10 mM to 200 uM, and then subjected to a 3-fold serial gradient dilution in DMSO from 200 uM, resulting in 9 concentrations.
(4) Treatment of Cells with Compounds (after the Overnight Incubation of the Cell Plate) • a) Each well was replenished with 99 μl of growth medium containing 10% FBS, and then 1 μl of the diluted compound was added to the well. The concentration of DMSO was 0.5%. • b) Concentrations of the tested compounds were: MV-4-11 cells: 300, 100, 33.3, 11.1, 3.7, 1.23, 0.41, 0.137, 0.046, 0 [nM]. • MOLM-13 cells: 1000, 333.3, 111.1, 37.04, 12.35, 4.1, 1.37, 0.46, 0.15, 0 [nM]. • c) Concentrations of control compound Taxol were: 1000, 333.3, 111.1, 37.04, 12.35, 4.12, 1.37, 0.46, 0.15, 0 [nM]. • d) The cell plate was placed in the incubator for 72 hours.
(5) CTG Assay • a) The test plate was placed at room temperature and equilibrated for 30 minutes, and 60 μl of the culture medium was discarded. • b) 60 μl of CTG reagent (CelltiterGlo kit) was added, and the plate was placed on a rapid plate shaker to shake for 2 min, and then let it stand at room temperature for 20 min. • c) Envision was used to read the values.
IC50 values were calculated using GraphPad Prism 6 software. The IC50 (half inhibitory concentration) values of the compounds were obtained by the following non-linear fitting formula. Y=Bottom+(Top−Bottom)/(1+10^((Log IC50−X)*HillSlope)) • X: Log value of the compound concentration • Y: Inhibition rate (% inhibition) % inhibition (inhibition rate)=100*(value of the High Control-value of the test compound well)/(value of the High Control-value of the Low Control)

A value given as a limit tells only on which side of the number the result lay.

As to `[2H]C([2H])([2H])Oc1cc(Nc2nc(NC3CCOCC3)c(CC)nc2C(N)=O)ccc1N1CCC(N2CCN(C)CC2)CC1` [Compound T-1, 6-ethyl-3-((3-(methoxy-d3)-4-(4-(4-methylpiperazin-1-yl)piperidin-1-yl)phenyl)amino)-5-((tetrahydro-2H-pyran-4-yl)amino)pyrazine-2-carboxamide], the values for the IC50 in the test on Ba/F3 parental cells, with Ba/F3 FLT3-ITD cells and in the test on MV-4-11 cells were 9720 nM, 46.5 nM and 2.17 nM, respectively.
For `[2H]C([2H])([2H])N1CCN(C2CCN(c3ccc(Nc4nc(NC5CCOCC5)c(CC)nc4C(N)=O)cc3OC)CC2)CC1` [Compound T-2, 6-ethyl-3-((3-methoxy-4-(4-(4-(methyl-d3)piperazin-1-yl)piperidin-1-yl)phenyl)amino)-5-((tetrahydro-2H-pyran-4-yl)amino)pyrazine-2-carboxamide] the same measures were 7160 nM, 51.3 nM and 2.35 nM.
For `[2H]C([2H])([2H])Oc1cc(Nc2nc(NC3CCOCC3)c(CC)nc2C(N)=O)ccc1N1CCC(N2CCN(C([2H])([2H])[2H])CC2)CC1` [Compound T-3, 6-ethyl-3-((3-(methoxy-d3)-4-(4-(4-(methyl-d3)piperazin-1-yl)piperidin-1-yl)phenyl)amino)-5-((tetrahydro-2H-pyran-4-yl)amino)pyrazine-2-carboxamide] the same measures were 5370 nM, 89 nM and 2.25 nM.
For `[2H]C([2H])([2H])N1CCN(C2CCN(c3ccc(Nc4nc(NC5CCOCC5)c(C([2H])([2H])C([2H])([2H])[2H])nc4C(N)=O)cc3OC)CC2)CC1` [Compound T-5, 6-(ethyl-d5)-3-((3-methoxy-4-(4-(4-(methyl-d3)piperazin-1-yl)piperidin-1-yl)phenyl)amino)-5-((tetrahydro-2H-pyran-4-yl)amino)pyrazine-2-carboxamide], in that order: 9290 nM, 94.4 nM and 2.01 nM.
Take `[2H]C1([2H])N(C)C([2H])([2H])C([2H])([2H])N(C2CCN(c3ccc(Nc4nc(NC5CCOCC5)c(CC)nc4C(N)=O)cc3OC)CC2)C1([2H])[2H]` [Compound T-8, 6-ethyl-3-((3-methoxy-4-(4-(4-methylpiperazin-1-yl-2,2,3,3,5,5,6,6-d8)piperidin-1-yl)phenyl)amino)-5-((tetrahydro-2H-pyran-4-yl)amino)pyrazine-2-carboxamide]: the IC50 with Ba/F3 parental cells came to 6870 nM; in the test on Ba/F3 FLT3-ITD cells, 85 nM; in the test with MV-4-11 cells, 2.17 nM.
For the compound `[2H]C([2H])([2H])N1C([2H])([2H])C([2H])([2H])N(C2CCN(c3ccc(Nc4nc(NC5CCOCC5)c(CC)nc4C(N)=O)cc3OC)CC2)C([2H])([2H])C1([2H])[2H]` [Compound T-9, 6-ethyl-3-((3-methoxy-4-(4-(4-(methyl-d3)piperazin-1-yl-2,2,3,3,5,5,6,6-d8)piperidin-1-yl)phenyl)amino)-5-((tetrahydro-2H-pyran-4-yl)amino)pyrazine-2-carboxamide], the IC50 is greater than 10000 nM in the test on Ba/F3 parental cells, 72 nM in the test with Ba/F3 FLT3-ITD cells and 2.03 nM in the test with MV-4-11 cells.
In the test with MV-4-11 cells, `CCc1nc(C(N)=O)c(Nc2ccc(N3CCC(N4CCN(C)CC4)CC3)c(OC)c2)nc1NC1CCOCC1` [Gilteritinib, 6-ethyl-3-((3-methoxy-4-(4-(4-methylpiperazin-1-yl)piperidin-1-yl)phenyl)amino)-5-((tetrahydro-2H-pyran-4-yl)amino)pyrazine-2-carboxamide, reference compound] came in with a 50% inhibitory concentration (IC50) of 2.23 nM.

One may read the IC50 as the point on the concentration scale where inhibition reaches its midpoint.
